The values that follow come from PMC8370991, “Structural basis for the inhibition of HTLV-1 integration inferred from cryo-EM deltaretroviral intasome structures” (Nature Communications, 2021).

Read-outs that look alike come from different tables or passages of the source.

For one test, the target named is T1, recombinant HTLV-1 IN (Human T-cell leukemia virus 1, UniProt P03362).
T1 construct: made in house
Briefly: In vitro integration strand transfer assay with HTLV-1 IN. The format is biochemical. As to conditions: for HTLV-1 IN strand transfer activity (No drug = 100): INSTI at 634 nM. As for the experimental part:
We used in vitro strand transfer assays to screen this small molecule library for its ability to inhibit recombinant HTLV-1 IN. The enzyme was incubated with an oligonucleotide vDNA donor mimic in the presence or absence of INSTIs and was allowed to react with a supercoiled plasmid mimicking target DNA. During the screening, the concentration of each compound was adjusted to 634 nM to provide optimal resolution of efficacy between well- and under-performing compounds.
The donor vDNA that mimics the 3′-processed LTR of HTLV-1 or STLV-1 DNA was preassembled by annealing the U5_S20Q_UP and U5_S20Q_B or MarB43_U5_S30UP or MarB43_U5_S30B oligonucleotides, respectively (Supplementary Table 4) in 100 mM Tris pH 7.4, 400 mM NaCl. For HTLV-1 IN, strand transfer reactions were conducted in a solution of 24.3 mM PIPES pH 6.0, 138.4 mM NaCl, 16.6 mM MgCl2, 5.8 μM ZnCl2, 12.7 mM DTT, 0.53 μM donor DNA and 4 μg of HTLV-1 IN[9],[39]. In brief, the reaction was incubated at RT for 15 min in the presence of an INSTI or dimethyl sulfoxide (DMSO) control and the reaction was started by the addition of 300 ng of pGEM-9Zf(-) supercoiled plasmid DNA. The reaction was incubated for 1 h at 37 °C and stopped by adding 0.5% SDS and 25 mM ethylenediaminetetraacetic acid (EDTA), pH 8.0.
Proteins were degraded by incubation with 30 μg of proteinase K (Roche) at 37 °C for 1 h. DNA was precipitated at −20 °C overnight in the presence of ethanol supplemented with 20 μg of glycogen and then resuspended in 1.5× agarose loading dye. The DNA products were separated by electrophoresis through 1.5% agarose gel and stained with ethidium bromide and imaged using the BioRad GelDox XR + imager. The data were analysed and the IC50 calculated as previously described. In brief, the DNA band that corresponds to the concerted integration product was quantified by densitometry in ImageLab 4.1 (Bio-Rad). All experiments were done in triplicate. Quantified data points were fitted to dose–response curves in Prism 9. The cumulative standard deviation for each drug was calculated as an average of the upper limit and lower limit values: Lowerlimit=IC50/10^logSE(IC50) Upperlimit=IC50×10^logSE(IC50)

The subject of the next test is HIV-1. To be noted: HIV-1 infection model, read-out: HIV-1 EC50 ± stdev, cited from earlier work.
Another test deals with HTLV-1. Briefly: Alu-qPCR of integrated provirus in HTLV-1 infected Jurkat cells. The format is cell-based. As to conditions: normalized to GAPDH. As for the experimental part: The HTLV-1 cell-to-cell infection was performed as previously described; Jurkat T cells were counted and diluted in complete RPMI to a final concentration of 0.25 × 10^6 cells/ml and pre-treated with INSTI drugs (final concentration ranging from 0.2 pM to 2 μM) or DMSO as a control for 24 h. MT-2 cells were resuspended in RPMI at a concentration of 2 × 10^6 cells/ml and subjected to a nonlethal γ-radiation dose of 400 Gy. Cells were resuspended at a concentration of 2 × 10^6 cells/ml in serum-free RPMI supplemented with the corresponding INSTI drug. Co-culture of 0.5 × 10^6 for each cell line was carried out for 16 h, after which cells were washed in PBS and resuspended in 1 ml of depletion buffer (PBS, 0.1% FBS and 2 mM EGTA). MT-2 cells were depleted from the culture by means of anti-CD25 magnetic beads (DynabeadsTM CD25, Thermo Fisher). Depletion efficiency was confirmed via flow cytometry as described previously. Jurkat cells were cultured for 2 weeks in complete RPMI supplemented with the drugs and genomic DNA was extracted (DNeasy kit, Qiagen) and stored at −20 °C for subsequent analysis. All the experiments were done in triplicate.
The PVL was measured as previously described[9],[53],[54]. Jurkat genomic DNA was quantified and diluted to a concentration of 5 ng/μL. Real-time qPCR analysis were conducted on 20 ng of gDNA to measure the level of HTLV-1 tax and gapdh genes (Supplementary Table 5). For the standard curve, the gDNA from an HTLV-1 naturally infected T-cell clone (clone 11.50, courtesy of professor Charles Bangham), which has one copy of tax and two of gapdh, was used. The integrated provirus copy number was calculated as follows: (tax copy numbers)/(2×gapdh copy number)[53], and normalised to the DMSO-treated control which was set to 100%. The PVL data were fitted to a dose–response curve in Prism 7 and the EC50 was calculated. Alu-PCR was performed as previously described in ref. [55]. In brief, the first PCR reaction was done with Phusion polymerase starting from 80 ng of gDNA using the ALU-specific primers (Alu-F/Gag-R). The nested PCR was run diluting the amplificated product 1:50. The reaction was done as a qPCR using Gag-specific primers (Gag-R/Gag-F) and the Luna SYBR dye reaction mix (New England Biolabs). The integrated provirus copy numbers were normalised to GAPDH and Jurkat cells treated with DMSO and infected with HTLV-1 were set to 100%. Experiments were done in triplicate. […]
Supplementary Figure 6 | Integrated provirus was quantified by Alu-qPCR.
Values were normalized to GAPDH. Uninfected represents uninfected Jurkat cells, acting as negative control. Condition without any drug present (DMSO) was set as 100%. Mean values and standard deviations are shown for n = three biologically independent experiments. P-values were calculated with respect to the DMSO control using the unpaired t-test with Welch’s correction in Prism 9. P-values are two-sided.

The mark [1] stands for this setting: Replicate 1, read-out: HTLV-1 IN strand transfer IC50.
Where [2] appears, read: Replicate 2, read-out: HTLV-1 IN strand transfer IC50.
The mark [3] stands for this setting: Replicate 3, read-out: HTLV-1 IN strand transfer IC50.
[4] abbreviates: integrase strand-transfer drug titration, n = 3, read-out: HTLV-1 IC50 ± stdev.

T1 sequence (P03362 1168-1462): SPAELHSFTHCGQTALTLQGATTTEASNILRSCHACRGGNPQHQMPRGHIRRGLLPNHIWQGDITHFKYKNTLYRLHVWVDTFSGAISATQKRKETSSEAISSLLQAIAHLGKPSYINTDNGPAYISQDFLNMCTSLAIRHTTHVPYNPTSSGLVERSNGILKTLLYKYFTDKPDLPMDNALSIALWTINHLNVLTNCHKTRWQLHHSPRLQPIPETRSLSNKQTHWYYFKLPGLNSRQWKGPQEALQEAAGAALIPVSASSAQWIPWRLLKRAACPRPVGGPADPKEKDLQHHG

As a reminder, the IC50 is the midpoint of a concentration-inhibition curve. One may read the EC50 as the concentration that produces a half-maximal response. With `COC(=O)CCc1cnc2c(c1)c(N)c(C(=O)NCc1ccc(F)cc1F)c(=O)n2O` [XZ434, methyl 3-(5-amino-6-((2,4-difluorobenzyl)carbamoyl)-8-hydroxy-7-oxo-7,8-dihydro-1,8-naphthyridin-3-yl)propanoate], the “HTLV-1 IN strand transfer activity (No drug = 100)” value on recombinant HTLV-1 IN (Replicate 1) was found to be 20.5794%; at recombinant HTLV-1 IN (Replicate 2), 19.7322%; at recombinant HTLV-1 IN (Replicate 3), 15.311%. Also, the IC50 at recombinant HTLV-1 IN (setting [1]) was 174 nM; at recombinant HTLV-1 IN (setting [2]), 217 nM; on recombinant HTLV-1 IN (setting [3]), 231 nM; on recombinant HTLV-1 IN (setting [4]), 204 ± 34.1 nM. Also, the EC50 with HIV-1 (supplementary ref 14) was 0.67 ± 0.15 nM. Also, the “Integrated provirus by Alu-qPCR (DMSO = 100%)” value in the test on HTLV-1 (Replicate 1) is 0.3355%; with HTLV-1 (Replicate 2) it was 0.8375%; in the test on HTLV-1 (Replicate 3), 1.324e-5%.
For the molecule `Nc1c(C(=O)NCc2ccc(F)cc2F)c(=O)n(O)c2ncccc12` [XZ384, 4-amino-N-(2,4-difluorobenzyl)-1-hydroxy-2-oxo-1,2-dihydro-1,8-naphthyridine-3-carboxamide], the “HTLV-1 IN strand transfer activity (No drug = 100)” value at recombinant HTLV-1 IN (Replicate 1) is 12.8154%; on recombinant HTLV-1 IN (Replicate 2), 24.1903%; at recombinant HTLV-1 IN (Replicate 3), 23.5902%. Moreover, the half-inhibitory concentration (IC50) on recombinant HTLV-1 IN (setting [1]) is 142 nM; on recombinant HTLV-1 IN (setting [2]), 268 nM; on recombinant HTLV-1 IN (setting [3]), 121 nM; on recombinant HTLV-1 IN (setting [4]) it was 210 ± 34 nM. Further, the EC50 in the test with HIV-1 (supplementary ref 1) is 1.1 ± 0.7 nM. Further, the “Integrated provirus by Alu-qPCR (DMSO = 100%)” value in the test with HTLV-1 (Replicate 1) is 4.1902%; in the test with HTLV-1 (Replicate 2), 0.144%; in the test on HTLV-1 (Replicate 3) it was 1.628%.
